In paper PMC9684079, “Pharmacological targeting of glutamatergic neurons within the brainstem for weight reduction” (Nature Metabolism, 2022):
pIC50: −log10 of the molar value.

What was measured:
Calcium Channel N-type = molecular target: T1, Calcium Channel N-type (Rattus norvegicus, UniProt Q02294); assay: biochemical; design: Cerep/Eurofins selectivity panel, receptors, channels and transporters, per cent inhibition at 10 uM; details: read-out: % Inhibition
T1 construct: gene Cacna1b

[1] = molecular target: Protein Tyrosine Kinase, FES (Homo sapiens, UniProt P07332); assay: biochemical; design: Cerep/Eurofins selectivity panel, enzymes, per cent inhibition at 10 uM; details: read-out: % Inhibition
Sequence of Protein Tyrosine Kinase, FES (P07332 whole entry): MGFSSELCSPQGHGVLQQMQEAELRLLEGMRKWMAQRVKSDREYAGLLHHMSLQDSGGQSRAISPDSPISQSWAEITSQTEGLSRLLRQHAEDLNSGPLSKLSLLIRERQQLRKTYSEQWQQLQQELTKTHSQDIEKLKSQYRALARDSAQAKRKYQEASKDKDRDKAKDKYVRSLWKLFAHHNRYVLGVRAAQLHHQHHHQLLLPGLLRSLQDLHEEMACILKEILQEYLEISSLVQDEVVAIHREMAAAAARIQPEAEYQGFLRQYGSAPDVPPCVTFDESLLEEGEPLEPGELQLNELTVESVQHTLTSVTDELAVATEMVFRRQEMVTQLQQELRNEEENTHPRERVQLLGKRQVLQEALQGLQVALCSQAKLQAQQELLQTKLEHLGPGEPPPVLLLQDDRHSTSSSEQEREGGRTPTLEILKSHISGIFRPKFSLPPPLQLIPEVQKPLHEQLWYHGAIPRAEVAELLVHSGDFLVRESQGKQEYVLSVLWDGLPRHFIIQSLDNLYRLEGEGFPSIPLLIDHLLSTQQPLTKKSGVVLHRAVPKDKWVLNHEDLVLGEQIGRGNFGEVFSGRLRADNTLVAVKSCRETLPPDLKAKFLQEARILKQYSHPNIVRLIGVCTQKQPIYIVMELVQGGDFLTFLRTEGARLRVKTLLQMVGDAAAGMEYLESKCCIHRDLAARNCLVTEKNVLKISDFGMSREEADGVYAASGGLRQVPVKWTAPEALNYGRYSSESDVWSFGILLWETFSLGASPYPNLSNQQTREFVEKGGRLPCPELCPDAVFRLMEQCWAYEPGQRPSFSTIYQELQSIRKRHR

[2] = molecular target: Protein Serine/Threonine Kinase, MAPK3 (ERK1) (Homo sapiens, UniProt P27361); assay: biochemical; design: Cerep/Eurofins selectivity panel, enzymes, per cent inhibition at 10 uM; details: read-out: % Inhibition
[3] = molecular target: Protein Serine/Threonine Kinase, MAPK8 (JNK1) (Homo sapiens, UniProt P45983); assay: biochemical; design: Cerep/Eurofins selectivity panel, enzymes, per cent inhibition at 10 uM; details: read-out: % Inhibition
[4] = molecular target: T2, Phosphodiesterase PDE10A2 (Homo sapiens, UniProt Q9Y233); assay: biochemical; design: Cerep/Eurofins selectivity panel, enzymes, per cent inhibition at 10 uM; details: read-out: % Inhibition
T2 construct: gene PDE10A; isoform PDE10A2

[5] = molecular target: T3, Peptidase, Matrix metalloprotease-7 (MMP-7) (Homo sapiens, UniProt P09237); assay: biochemical; design: Cerep/Eurofins selectivity panel, enzymes, per cent inhibition at 10 uM; details: read-out: % Inhibition
T3 construct: gene MMP7
T3 sequence (P09237 whole entry): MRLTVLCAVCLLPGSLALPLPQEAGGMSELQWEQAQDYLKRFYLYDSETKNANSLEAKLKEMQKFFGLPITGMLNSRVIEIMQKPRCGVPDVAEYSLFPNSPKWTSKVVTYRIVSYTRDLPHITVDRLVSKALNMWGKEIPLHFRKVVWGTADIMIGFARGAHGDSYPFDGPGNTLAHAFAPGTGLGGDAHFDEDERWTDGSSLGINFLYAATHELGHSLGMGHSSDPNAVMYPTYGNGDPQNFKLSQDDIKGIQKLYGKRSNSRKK

Peptidase, Renin = molecular target: T4, Peptidase, Renin (Homo sapiens, UniProt P00797); assay: biochemical; design: Cerep/Eurofins selectivity panel, enzymes, per cent inhibition at 10 uM; details: read-out: % Inhibition
T4 construct: gene REN

[6] = molecular target: T5, Protein Tyrosine Kinase, Insulin receptor (Homo sapiens, UniProt P06213); assay: biochemical; design: Cerep/Eurofins selectivity panel, enzymes, per cent inhibition at 10 uM; details: read-out: % Inhibition
T5 construct: gene INSR

Cyclooxygenase COX-2 = molecular target: T6, Cyclooxygenase COX-2 (Homo sapiens, UniProt P35354); assay: biochemical; design: Cerep/Eurofins selectivity panel, enzymes, per cent inhibition at 10 uM; details: read-out: % Inhibition
T6 construct: gene PTGS2

[7] = molecular target: Protein Serine/Threonine Kinase, MAPK1 (ERK2) (Homo sapiens, UniProt P28482); assay: biochemical; design: Cerep/Eurofins selectivity panel, enzymes, per cent inhibition at 10 uM; details: read-out: % Inhibition
Monoamine Oxidase MAO-A = molecular target: T7, Monoamine Oxidase MAO-A (Homo sapiens, UniProt P21397); assay: biochemical; design: Cerep/Eurofins selectivity panel, enzymes, per cent inhibition at 10 uM; details: read-out: % Inhibition
T7 construct: gene MAOA
T7 sequence (P21397 whole entry): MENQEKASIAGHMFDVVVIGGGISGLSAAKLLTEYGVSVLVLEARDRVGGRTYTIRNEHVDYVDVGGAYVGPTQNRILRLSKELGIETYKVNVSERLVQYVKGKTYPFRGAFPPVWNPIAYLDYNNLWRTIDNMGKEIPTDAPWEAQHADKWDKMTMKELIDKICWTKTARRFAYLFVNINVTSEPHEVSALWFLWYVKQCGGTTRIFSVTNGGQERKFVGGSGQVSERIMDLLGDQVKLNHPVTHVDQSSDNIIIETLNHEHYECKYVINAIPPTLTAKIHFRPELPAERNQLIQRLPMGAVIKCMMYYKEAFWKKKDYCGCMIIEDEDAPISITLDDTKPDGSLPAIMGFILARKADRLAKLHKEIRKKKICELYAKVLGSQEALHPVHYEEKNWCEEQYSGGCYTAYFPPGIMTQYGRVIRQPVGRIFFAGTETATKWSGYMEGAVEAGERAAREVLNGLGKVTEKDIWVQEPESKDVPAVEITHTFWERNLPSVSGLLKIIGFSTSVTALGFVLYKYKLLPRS

Monoamine Oxidase MAO-B = molecular target: T8, Monoamine Oxidase MAO-B (Homo sapiens, UniProt P27338); assay: biochemical; design: Cerep/Eurofins selectivity panel, enzymes, per cent inhibition at 10 uM; details: read-out: % Inhibition
T8 construct: gene MAOB

[8] = molecular target: Protein Serine/Threonine Kinase, MAP2K1 (MEK1) (Homo sapiens, UniProt Q02750); assay: biochemical; design: Cerep/Eurofins selectivity panel, enzymes, per cent inhibition at 10 uM; details: read-out: % Inhibition
[9] = molecular target: T9, Peptidase, Matrix metalloprotease-1 (MMP-1) (Homo sapiens, UniProt P03956); assay: biochemical; design: Cerep/Eurofins selectivity panel, enzymes, per cent inhibition at 10 uM; details: read-out: % Inhibition
T9 construct: gene MMP1
T9 sequence (P03956 whole entry): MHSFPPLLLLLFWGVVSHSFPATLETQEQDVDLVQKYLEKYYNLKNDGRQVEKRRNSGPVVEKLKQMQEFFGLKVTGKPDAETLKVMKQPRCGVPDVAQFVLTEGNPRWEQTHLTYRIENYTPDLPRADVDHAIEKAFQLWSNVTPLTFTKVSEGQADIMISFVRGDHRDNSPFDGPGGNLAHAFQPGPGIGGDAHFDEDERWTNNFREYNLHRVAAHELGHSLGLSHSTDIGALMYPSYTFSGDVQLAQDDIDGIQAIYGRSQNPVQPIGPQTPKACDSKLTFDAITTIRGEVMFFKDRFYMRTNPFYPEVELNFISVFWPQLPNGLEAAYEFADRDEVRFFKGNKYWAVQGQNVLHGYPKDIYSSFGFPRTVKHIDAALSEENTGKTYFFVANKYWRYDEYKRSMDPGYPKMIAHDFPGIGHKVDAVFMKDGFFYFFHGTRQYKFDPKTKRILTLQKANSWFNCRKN

[10] = molecular target: T10, Cholinesterase, Acetyl, ACES (Homo sapiens, UniProt P22303); assay: biochemical; design: Cerep/Eurofins selectivity panel, enzymes, per cent inhibition at 10 uM
T10 construct: gene ACHE
T10 sequence (P22303 whole entry): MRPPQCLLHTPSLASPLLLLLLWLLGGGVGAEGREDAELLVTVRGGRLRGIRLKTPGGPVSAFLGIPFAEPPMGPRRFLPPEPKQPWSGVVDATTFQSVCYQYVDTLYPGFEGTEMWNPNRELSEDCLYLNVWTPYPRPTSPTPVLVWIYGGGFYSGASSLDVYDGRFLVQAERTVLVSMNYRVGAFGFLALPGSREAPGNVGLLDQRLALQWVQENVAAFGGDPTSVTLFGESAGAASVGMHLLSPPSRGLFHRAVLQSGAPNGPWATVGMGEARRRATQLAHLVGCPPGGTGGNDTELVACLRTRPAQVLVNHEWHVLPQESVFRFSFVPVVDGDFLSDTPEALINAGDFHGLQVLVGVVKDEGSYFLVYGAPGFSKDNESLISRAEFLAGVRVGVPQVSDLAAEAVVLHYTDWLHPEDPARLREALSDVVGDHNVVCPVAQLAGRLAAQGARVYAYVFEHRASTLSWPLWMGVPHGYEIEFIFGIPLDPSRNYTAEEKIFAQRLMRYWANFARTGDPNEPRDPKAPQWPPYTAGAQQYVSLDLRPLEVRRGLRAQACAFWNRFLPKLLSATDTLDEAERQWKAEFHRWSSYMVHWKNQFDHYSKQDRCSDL

[11] = molecular target: T11, Peptidase, Tumor necrosis factorα Converting enzyme (TACE) (Homo sapiens, UniProt P78536); assay: biochemical; design: Cerep/Eurofins selectivity panel, enzymes, per cent inhibition at 10 uM; details: read-out: % Inhibition
T11 construct: gene ADAM17

Dopamine D2L = molecular target: T12, Dopamine D2L (Homo sapiens, UniProt P14416); assay: biochemical; design: Cerep/Eurofins selectivity panel, receptors, channels and transporters, per cent inhibition at 10 uM; details: read-out: % Inhibition
T12 construct: gene DRD2; long isoform D2L
T12 sequence (P14416 whole entry, canonical isoform): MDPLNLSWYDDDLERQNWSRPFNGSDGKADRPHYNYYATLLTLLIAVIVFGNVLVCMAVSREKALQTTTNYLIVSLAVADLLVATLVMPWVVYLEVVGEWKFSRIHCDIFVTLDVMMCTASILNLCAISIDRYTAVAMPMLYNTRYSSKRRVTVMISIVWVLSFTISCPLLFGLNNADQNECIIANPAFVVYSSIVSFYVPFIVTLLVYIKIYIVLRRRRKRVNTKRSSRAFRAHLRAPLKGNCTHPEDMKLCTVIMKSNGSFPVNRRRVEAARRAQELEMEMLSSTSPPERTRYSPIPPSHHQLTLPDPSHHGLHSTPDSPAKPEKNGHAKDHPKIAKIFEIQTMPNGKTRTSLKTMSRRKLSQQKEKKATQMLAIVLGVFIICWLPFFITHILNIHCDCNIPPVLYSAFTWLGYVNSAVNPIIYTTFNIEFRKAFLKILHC

Muscarinic M4 = molecular target: T13, Muscarinic M4 (Homo sapiens, UniProt P08173); assay: biochemical; design: Cerep/Eurofins selectivity panel, receptors, channels and transporters, per cent inhibition at 10 uM; details: read-out: % Inhibition
T13 construct: gene CHRM4
T13 sequence (P08173 whole entry): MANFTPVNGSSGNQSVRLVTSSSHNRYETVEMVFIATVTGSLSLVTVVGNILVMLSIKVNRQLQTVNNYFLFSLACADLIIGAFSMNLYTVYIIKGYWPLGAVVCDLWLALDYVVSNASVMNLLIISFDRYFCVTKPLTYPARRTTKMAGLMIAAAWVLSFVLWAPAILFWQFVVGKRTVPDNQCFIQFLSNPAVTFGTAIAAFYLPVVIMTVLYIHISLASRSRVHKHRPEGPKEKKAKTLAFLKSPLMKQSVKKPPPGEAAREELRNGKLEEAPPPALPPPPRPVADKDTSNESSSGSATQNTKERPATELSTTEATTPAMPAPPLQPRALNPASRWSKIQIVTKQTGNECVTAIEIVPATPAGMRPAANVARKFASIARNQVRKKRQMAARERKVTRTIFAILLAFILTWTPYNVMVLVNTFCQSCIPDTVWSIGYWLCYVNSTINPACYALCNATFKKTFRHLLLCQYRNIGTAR

Bradykinin B1 = molecular target: T14, Bradykinin B1 (Homo sapiens, UniProt P46663); assay: biochemical; design: Cerep/Eurofins selectivity panel, receptors, channels and transporters, per cent inhibition at 10 uM; details: read-out: % Inhibition
T14 construct: gene BDKRB1

Tachykinin NK2 = molecular target: T15, Tachykinin NK2 (Homo sapiens, UniProt P21452); assay: biochemical; design: Cerep/Eurofins selectivity panel, receptors, channels and transporters, per cent inhibition at 10 uM; details: read-out: % Inhibition
T15 construct: gene TACR2
T15 sequence (P21452 whole entry): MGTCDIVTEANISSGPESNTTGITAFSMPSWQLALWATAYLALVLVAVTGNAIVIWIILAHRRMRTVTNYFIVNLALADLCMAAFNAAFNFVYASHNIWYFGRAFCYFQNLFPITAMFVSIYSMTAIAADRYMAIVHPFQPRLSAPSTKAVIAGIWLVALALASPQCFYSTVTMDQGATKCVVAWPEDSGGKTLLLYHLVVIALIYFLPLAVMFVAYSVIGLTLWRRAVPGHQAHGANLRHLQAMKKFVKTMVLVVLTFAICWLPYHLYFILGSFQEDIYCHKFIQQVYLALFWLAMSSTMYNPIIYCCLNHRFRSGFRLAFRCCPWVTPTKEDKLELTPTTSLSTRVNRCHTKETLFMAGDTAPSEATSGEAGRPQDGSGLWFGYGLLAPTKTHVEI

GABAB1B = molecular target: T16, GABAB1B (Homo sapiens, UniProt Q9UBS5); assay: biochemical; design: Cerep/Eurofins selectivity panel, receptors, channels and transporters, per cent inhibition at 10 uM; details: read-out: % Inhibition
T16 construct: gene GABBR1; isoform 1B

Vasopressin V1b = molecular target: T17, Vasopressin V1b (Homo sapiens, UniProt P47901); assay: biochemical; design: Cerep/Eurofins selectivity panel, receptors, channels and transporters, per cent inhibition at 10 uM; details: read-out: % Inhibition
T17 construct: gene AVPR1B
T17 sequence (P47901 whole entry): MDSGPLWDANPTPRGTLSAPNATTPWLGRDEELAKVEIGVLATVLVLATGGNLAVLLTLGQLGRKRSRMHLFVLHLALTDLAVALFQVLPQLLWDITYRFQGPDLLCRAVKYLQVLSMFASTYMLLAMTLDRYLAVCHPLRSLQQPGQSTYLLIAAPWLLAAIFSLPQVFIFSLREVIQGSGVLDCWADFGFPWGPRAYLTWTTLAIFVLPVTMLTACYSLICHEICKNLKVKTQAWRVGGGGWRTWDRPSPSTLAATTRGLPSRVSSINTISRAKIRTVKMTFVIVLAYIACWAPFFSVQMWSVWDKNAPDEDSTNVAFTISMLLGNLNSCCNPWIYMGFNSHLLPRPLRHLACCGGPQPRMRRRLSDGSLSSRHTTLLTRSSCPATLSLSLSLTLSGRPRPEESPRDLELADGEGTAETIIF

Estrogen Erα = molecular target: T18, Estrogen Erα (Homo sapiens, UniProt P03372); assay: biochemical; design: Cerep/Eurofins selectivity panel, receptors, channels and transporters, per cent inhibition at 10 uM; details: read-out: % Inhibition
T18 construct: gene ESR1

[12] = molecular target: T19, Protein Tyrosine Kinase, ZA70 (ZAP-70) (Homo sapiens, UniProt P43403); assay: biochemical; design: Cerep/Eurofins selectivity panel, enzymes, per cent inhibition at 10 uM; details: read-out: % Inhibition
T19 construct: gene ZAP70

mouse Hcrtr1 = molecular target: T20, mouse Hcrtr1 (Mus musculus, UniProt P58307); assay: FLIPR Ca2+ flux, antagonism of orexin A response; format: cell-based
T20 construct: CHO-K1 cells expressing Gα16 and mouse Hcrtr1
T20 sequence (P58307 whole entry): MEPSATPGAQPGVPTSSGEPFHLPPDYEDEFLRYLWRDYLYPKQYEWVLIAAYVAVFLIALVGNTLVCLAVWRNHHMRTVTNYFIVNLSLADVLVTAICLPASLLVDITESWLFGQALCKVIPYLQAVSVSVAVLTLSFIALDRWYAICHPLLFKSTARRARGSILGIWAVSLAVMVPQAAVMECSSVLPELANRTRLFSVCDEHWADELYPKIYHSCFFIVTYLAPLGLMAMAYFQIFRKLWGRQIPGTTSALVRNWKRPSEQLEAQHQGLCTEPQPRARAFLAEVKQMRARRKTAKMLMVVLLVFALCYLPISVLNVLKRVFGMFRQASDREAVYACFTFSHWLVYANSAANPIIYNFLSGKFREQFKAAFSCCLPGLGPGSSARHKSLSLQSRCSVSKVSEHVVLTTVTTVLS

C[C@]1(Nc2cnc(C(F)(F)F)cn2)CCC[C@@H]1NC(=O)c1ncccc1-n1nccn1 [CVN45502]
inhibition at 10 µM (Calcium Channel N-type): -1% | inhibition at 10 µM [1]: -13% | inhibition at 10 µM [2]: 8% | inhibition at 10 µM [3]: 6% | inhibition at 10 µM [4]: 35% | inhibition at 10 µM [5]: 6% | inhibition at 10 µM (Peptidase, Renin): 10% | inhibition at 10 µM [6]: -14% | inhibition at 10 µM (Cyclooxygenase COX-2): -13% | inhibition at 10 µM [7]: 5% | inhibition at 10 µM (Monoamine Oxidase MAO-A): 11% | inhibition at 10 µM (Monoamine Oxidase MAO-B): 8% | inhibition at 10 µM [8]: -4% | inhibition at 10 µM [9]: 18% | inhibition at 10 µM [10]: -8% | inhibition at 10 µM [11]: 2% | inhibition at 10 µM (Dopamine D2L): 7% | inhibition at 10 µM (Muscarinic M4): 10% | inhibition at 10 µM (Bradykinin B1): 4% | inhibition at 10 µM (Tachykinin NK2): -8% | inhibition at 10 µM (GABAB1B): -1% | inhibition at 10 µM (Vasopressin V1b): -8% | inhibition at 10 µM (Estrogen Erα): 2% | inhibition at 10 µM [12]: -1% | pIC50 (mouse Hcrtr1): 7.74
